Data reported in patent US5543410A, “Pharmacological use of phthaloylhydrazide derivatives; combination and application thereof” (L.I.M.A.D. Limited, priority 1993, dated 1996).

What was measured:
pregnant female rats = conditions: 60 mg/kg single dose, intraperitoneal
Experimental: Tests pertaining to teratogenicity and embryotoxicity were performed upon fifty-eight pregnant female rats. A single dose (60 mg/kg) was injected intraperitoneally on the first, third, seventh, tenth, fourteenth, or seventeenth days of gestation. These rats were decapitated on the twenty-first day of gestation, and uteri and fetuses were examined.

[1] = tested on: cancer affecting the left breast, metastatic tumors
Experimental: During subsequent years, they had undergone radiation therapy and chemotherapy on multiple occasions on account of metastatic tumors.
On account of the severity of the patient's condition, intramuscular administration of the drug in 100 mg doses every two days was initiated.

male mice = conditions: 30 and 60 mg/kg
Experimental: Doses of 30 mg/kg and 60 mg/kg according to body weight were used for studying pharmacological properties in relation to the central nervous system. Selection of this dosage level was based upon criteria in terms of safety in using drugs.
Neuropharmacological effects were studied in sexually mature male mice from unspecified strains. A solution of the drug was administered intraabdominally to these mice, with weights of 18.0 g to 20.0 g, and neuropharmacological effects were studied in terms of changes in the natural orientation reflex, in induced aggressiveness, and in muscle tone. Changes in natural orientation were recorded according to current methods. For determining the drug's influence upon induced aggressiveness, the electrical stimulation method (an electrical current which caused pain was transmitted) was adopted.
Changes in muscle tone were measured according to the "pivot pin" method.

hemorrhoids = tested on: hemorrhoids
Description: Similarly, anal fissures have represented a difficult problem for modern medicine to resolve. In this instance, the inflammatory component is associated with a morphological defect.
The drug was used in the form of suppositories in 0.1 g doses once daily, in order to treat acute hemorrhoids in patients whose ages were from twenty to sixty years.

leucocytes = conditions: inflammation of the cornea
[2] = tested on: proctitis attributable to radiation therapy
Description: B., a patient who was […], complained of burning sensations in the anus, along with frequent and painful urination, after having received radiation therapy for a period of forty-five days. During a rectosigmoidoscopy examination, intense edema and contact hemorrhaging within the rectal mucosae were observed above the tumor. The diagnosis was: proctitis and cystitis arising from radiation therapy. On account of a lack of specific therapeutic measures, the drug was prescribed for the patient according to a dose of 100 mg per day.

[3] = model systems (micellar phase); times less
Experimental: (§1) In models corresponding to acute purulent inflammation (wounds) caused by inoculation of a suspension of pathogenic microbes, such as E. coli and S. aureus, pentane production within air exhaled by the respective animals was measured.

[4] = tested on: acute purulent inflammation (wounds) caused by E. coli and S. aureus; conditions: single administration
Experimental: as §1

[5] = tested on: peroxidation of blood plasma
Experimental: as §1

[6] = tested on: abortion induced by Salmonella typhinurium endotoxin; conditions: 15 mg/kg; abortions in eighty percent without drug
metabolic products = assay type: in vivo; conditions: in vivo; read-out: fraction of compound decomposed into 5-aminophthalic acid, oxygen, and nitrogen
[7] = tested on: acute intestinal infections
Experimental: 200 mg of the drug in an isotonic aqueous solution was administered to this patient.

[8] = tested on: inflammation of the mucosae, chronic tonsillitis; test: inflammation of the mucosae / chronic tonsillitis (gargling); assay type: in vivo; conditions: gargling solution
AIDS = tested on: AIDS
Experimental: Treatment began with intramuscular administration of 100 mg doses of the drug, once daily.
The daily dosage of the drug was then increased to 400 mg.

[9] = tested on: mice exposed to carbon tetrachloride; conditions: 10 to 20 mg/kg; control group 65 percent
neutrophils = conditions: in vivo (whole blood), NST test
[10] = 100 mg suppositories morning and evening

Description for autoimmune diseases: Nevertheless, repeated administration of the drug is required in order to accomplish this objective.
Description for proctosigmoiditis: Treatment was provided for nine patients affected by proctosigmoiditis; their ages were between forty and fifty-five years. These patients had complained of irregular defecation, protrusion of the mucosae from the anus, and minor pain in the ileum, on the left side.
During visual examination of the intestine, it was observed that the mucosae of the rectal and sigmoid portions of the colon were affected by edema. In addition, images of the capillary network were blurred, and a fibrous film was present within limited segments. The drug was administered to these patients in the form of rectal suppositories, in doses of 100 mg per day, subsequent to enemas.

**Q.** For `Nc1cccc2c(=O)[nH][nH]c(=O)c12`, which fetal abnormalities (pregnant female rats) is on record?
**A.** No fetal abnormalities were found

**Q.** What about the intensity of pain ([1]; after first injection, 100 mg intramuscular every two days) of the same compound?
**A.** the intensity of their pain decreased significantly

**Q.** And the general condition ([1]; alternate days intramuscular)?
**A.** a steady improvement in the patient's general condition was observed

**Q.** And the “urine, urination, perspiration” value ([1]; in vivo)?
**A.** their urine became more dense, frequent urination began, and their perspiration acquired a rather foul odor

**Q.** What about the “vomiting, stools” value ([1]; in vivo) of the same compound?
**A.** vomiting began, and the patient's stools were malodorous

**Q.** What about the edema ([1]; thirteenth and fourteenth days) of the same compound?
**A.** had diminished significantly

**Q.** And the condition and appetite ([1]; twentieth day)?
**A.** the patient's condition improved, and their appetite was restored

**Q.** And the “threshold for sensitivity to pain” value (male mice)?
**A.** did not alter the threshold for sensitivity to pain

**Q.** And the natural orientation reflex (male mice; intraabdominal)?
**A.** did not suppress the natural orientation reflex

**Q.** And the muscle tone (male mice; pivot pin method)?
**A.** did not cause changes in muscle tone

**Q.** What about the recovery (hemorrhoids; 0.1 g once daily) of the same compound?
**A.** The patients recovered fully

**Q.** And the “time until inflammatory process and enlargement of hemorrhoidal nodes disappeared” value (hemorrhoids; 0.1 g once daily)?
**A.** fifth

**Q.** What about the “time until anal pain ceased” value (hemorrhoids; 0.1 g suppositories once daily) of the same compound?
**A.** Seventeen to thirty

**Q.** What about the “time to alleviation of pain syndrome” value (hemorrhoids; rectal administration) of the same compound?
**A.** thirty

**Q.** What about the “inflammatory process and edema” value (hemorrhoids; twelve hours) of the same compound?
**A.** significant shrinkage of the inflammatory process and reduction of edema in hemorrhoidal nodes

**Q.** And the “expansion of malignant tumors” value (malignant tumors; increasing doses and frequency)?
**A.** ensures inhibition of the expansion of malignant tumors

**Q.** What about the “tumor dimensions and general condition” value (malignant tumors; three patients) of the same compound?
**A.** favorable results represented by reduction of the dimensions of tumors and by an improvement in their general condition

**Q.** What about the “effect in combination with radiation therapy” value (malignant tumors; total dose of 60 to 90 g) of the same compound?
**A.** the effect upon its action is intensified

**Q.** And the “leucocyte adhesion properties and chemotaxis” value (leucocytes)?
**A.** An increase in leucocyte adhesion properties and intensification of chemotaxis

**Q.** And the clinical effect ([2]; 100 mg per day, three days)?
**A.** absence of any significant clinical effect

**Q.** And the “time to decrease of anal burning and painful urination” value [2, 10]?
**A.** one

**Q.** And the “time until pain and burning no longer present” value [2, 10]?
**A.** third

**Q.** What about the “time to normal urination” value ([2]; after the dosage was increased) of the same compound?
**A.** fifth

**Q.** And the rectosigmoidoscopy finding ([2]; ten days later)?
**A.** regeneration of the capillary network within the rectal mucosae was observed

**Q.** What about the “storage period (stable)” value (anhydrous conditions) of the same compound?
**A.** > 1 year

**Q.** What about the expiration period (aqueous solution) of the same compound?
**A.** > ten to twenty

**Q.** What about the “antioxidant effectiveness less than previously identified antioxidants” value [3] of the same compound?
**A.** thirty to fifty

**Q.** And the pentane level attained [4]?
**A.** until a normal level was attained

**Q.** What about the “time to reduction in pentane in exhaled air” value [4] of the same compound?
**A.** thirty to sixty

**Q.** And the “antioxidant effectiveness versus known antioxidants” value ([5]; blood plasma)?
**A.** significantly superior to known antioxidants such as dibunol, alphatocopherol, and superoxydismutaze (SOD)

**Q.** What about the “increase in retardation constant for peroxidation of blood plasma” value ([5]; two to five minutes after administration) of the same compound?
**A.** ten to twelve

**Q.** And the abortion prevented [6]?
**A.** seven

**Q.** What about the “erythema at the site of administration” value (guinea pigs; even large doses) of the same compound?
**A.** Erythema was not encountered

**Q.** What about the indications of allergies (guinea pigs; subcutaneous or oral administration) of the same compound?
**A.** no indications of allergies were observed

**Q.** What about the “patients in whom subsequent development of pathological processes was prevented” value (autoimmune diseases; after an initial phase of treatment) of the same compound?
**A.** 90%

**Q.** And the principal symptoms (autoimmune diseases; suppositories, intravenous or intramuscular, repeated)?
**A.** allows alleviation of the principal symptoms of these diseases

**Q.** And the metabolised (metabolic products)?
**A.** > 90%

**Q.** What about the “time until symptoms and pain disappeared” value (proctosigmoiditis; 100 mg per day rectal suppositories) of the same compound?
**A.** one

**Q.** And the complaints (proctosigmoiditis; by the seventh day)?
**A.** the patients no longer complained of symptoms

**Q.** What about the rectosigmoidoscopy finding (proctosigmoiditis; checkups) of the same compound?
**A.** renewal of normal conditions was observed within the rectal mucosae and within the sigmoid colon

**Q.** And the “time to improvement, decrease in abdominal pain, cessation of diarrhea” value ([7]; 200 mg in isotonic aqueous solution)?
**A.** Forty to fifty

**Q.** What about the “fecal cultures for bacillary dysentery and Salmonella” value ([7]; in vivo) of the same compound?
**A.** negative

**Q.** What about the symptoms of intoxication ([7]; one day after admission) of the same compound?
**A.** all of the symptoms of intoxication had disappeared

**Q.** What about the “inflammation of the mucosae” value [8] of the same compound?
**A.** favorable results were obtained

**Q.** What about the therapeutic effects (AIDS; 100 mg intramuscular once daily, three days) of the same compound?
**A.** no therapeutic effects had been observed

**Q.** And the “complications of AIDS” value (AIDS; 5 to 15 mg/kg daily, extended period)?
**A.** significant prevention or reduction of complications

**Q.** What about the further symptoms (AIDS; continued daily administration) of the same compound?
**A.** further symptoms of the disease did not appear

**Q.** And the therapeutic action (AIDS; daily dose doubled)?
**A.** still not observable

**Q.** What about the “effectiveness of standard doses” value (AIDS; standard doses for inflammatory diseases) of the same compound?
**A.** limited effectiveness

**Q.** What about the mortality rate [9] of the same compound?
**A.** 14%

**Q.** What about the “rate at which superoxide radicals formed” value (neutrophils) of the same compound?
**A.** an increase in the rate at which superoxide radicals formed
